The results in this text go back to PubChem BioAssay AID1259407 (Chemical Carcinogenesis Research Information System (CCRIS), 2018).

The data set concerns CCRIS mutagenicity, Ames/micronucleus/aberration tests. Put plainly: CCRIS mutagenicity studies.
Setting [1] is: Test System: AMES SALMONELLA TYPHIMURIUM, Strain/Indicator: TA98, Metabolic Activation: RAT, LIVER, S-9, AROCLOR 1254, Method: PREINCUBATION
Where [2] appears, read: Test System: AMES SALMONELLA TYPHIMURIUM, Strain/Indicator: TA100, Metabolic Activation: RAT, LIVER, S-9, AROCLOR 1254, Method: PREINCUBATION
The mark [3] stands for this setting: Test System: AMES SALMONELLA TYPHIMURIUM, Strain/Indicator: TA100, Metabolic Activation: NONE, Method: STANDARD PLATE.
Setting [4] is: Test System: AMES SALMONELLA TYPHIMURIUM, Strain/Indicator: TA98, Metabolic Activation: NONE, Method: STANDARD PLATE.
Where [5] appears, read: Test System: AMES SALMONELLA TYPHIMURIUM, Strain/Indicator: TA98, Metabolic Activation: RAT, LIVER, S-9, AROCLOR 1254, Method: STANDARD PLATE.
[6] abbreviates: Test System: AMES SALMONELLA TYPHIMURIUM, Strain/Indicator: TA100, Metabolic Activation: RAT, LIVER, S-9, AROCLOR 1254, Method: STANDARD PLATE.
Setting [7] is: Test System: AMES SALMONELLA TYPHIMURIUM, Strain/Indicator: TA1538, Metabolic Activation: NONE, Method: STANDARD PLATE.
Where [8] appears, read: Test System: AMES SALMONELLA TYPHIMURIUM, Strain/Indicator: TA1538, Metabolic Activation: RAT, LIVER, S-9, AROCLOR 1254, Method: STANDARD PLATE.
Where [9] appears, read: Test System: AMES SALMONELLA TYPHIMURIUM, Strain/Indicator: TA98, Metabolic Activation: NONE, Method: PREINCUBATION
The mark [10] stands for this setting: Test System: AMES SALMONELLA TYPHIMURIUM, Strain/Indicator: TA100, Metabolic Activation: NONE, Method: PREINCUBATION
The mark [11] stands for this setting: Test System: AMES SALMONELLA TYPHIMURIUM, Strain/Indicator: TA102, Metabolic Activation: NONE, Method: PREINCUBATION
Where [12] appears, read: Test System: AMES SALMONELLA TYPHIMURIUM, Strain/Indicator: TA104, Metabolic Activation: NONE, Method: PREINCUBATION

Molecules are shown by their SMILES. “Also recorded” adds a separate entry of the source. The source made the active and inactive calls. The rule behind the calls is not given here.

Regarding `Cn1c(N)nc2cc(Cl)ccc21`, the mutagenic call by setting is: under setting [1], “active; positive”; under setting [2], “active; positive”.
In the case of `CC(C)(C)C(Br)C(=O)Nc1ccccc1` (stereo not given), the mutagenic call is “inactive; negative” (Test System: AMES SALMONELLA TYPHIMURIUM, Strain/Indicator: TA100, Metabolic Activation: MOUSE, LIVER, S-9, AROCLOR 1254, Method: STANDARD PLATE) and “inactive; negative” under setting [3].
As for `CCNc1cc(NC(C)=O)c(N=Nc2c(Cl)cc([N+](=O)[O-])cc2[N+](=O)[O-])cc1OC`, the mutagenic call (End Point: IN VITRO CHROMOSOMAL ABERRATIONS, Test System: CHL CELLS, Metabolic Activation: NONE) was “inactive; negative; precipitation of test chemical observed above 0.01 mg/ml; also recorded: active; positive (ploidy changes); precipitation of test chemical observed above 0.01 mg”.
As to `CC(O)Cc1cc(N)cc([N+](=O)[O-])c1N` (stereo not given), the mutagenic call is “inactive; negative” under setting [4]; “inactive; negative” under setting [5]; “inactive; negative” under setting [3]; “inactive; negative” under setting [6]; “inactive; negative” (Test System: AMES SALMONELLA TYPHIMURIUM, Strain/Indicator: TA1535, Metabolic Activation: NONE, Method: STANDARD PLATE); “inactive; negative” (Test System: AMES SALMONELLA TYPHIMURIUM, Strain/Indicator: TA1535, Metabolic Activation: RAT, LIVER, S-9, AROCLOR 1254, Method: STANDARD PLATE). Moreover, the mutagenic call reads like this: (Test System: AMES SALMONELLA TYPHIMURIUM, Strain/Indicator: TA1537, Metabolic Activation: NONE, Method: STANDARD PLATE) “inactive; negative”; (Test System: AMES SALMONELLA TYPHIMURIUM, Strain/Indicator: TA1537, Metabolic Activation: RAT, LIVER, S-9, AROCLOR 1254, Method: STANDARD PLATE) “inactive; negative”; under setting [7], “inactive; negative”; under setting [8], “inactive; negative”.
Consider `CC(=O)OC1Cc2c3ccc4ccccc4c3cc3ccc(C)c1c23` (stereo not given), for which the mutagenic call under setting [4] was “inactive; negative” and the mutagenic call under setting [3] is “active; positive”.
Turning to `O=NN1CCSC1C(O)C(O)C(O)C(O)CO` (stereo not given), the mutagenic call was “inactive; negative” under setting [9]; “inactive; negative” under setting [4]; “inactive; negative” under setting [1]; “inactive; negative” under setting [5]; “active; positive” under setting [10]; “active; positive” under setting [3]. Besides, the mutagenic call under setting [2] is “active; positive” and the mutagenic call under setting [6] is “active; positive”.
With `COc1cc(N=Nc2ccc(N(CCO)CCO)cc2)ccc1N=Nc1c(S(=O)(=O)O)cc2ccc(N)cc2c1O`, the mutagenic call was “inactive; negative” under setting [4]; “active; positive” under setting [5]; “inactive; negative” under setting [3]; “inactive; negative” under setting [6]; “inactive; negative” under setting [7]; “active; positive” under setting [8].
As for `CNC(=O)NOC(=O)N(C)C(=O)NC`, the mutagenic call by setting is: under setting [4], “inactive; negative”; (Test System: AMES SALMONELLA TYPHIMURIUM, Strain/Indicator: TA98, Metabolic Activation: RAT, LIVER, S-9, Method: STANDARD PLATE) “inactive; negative”; under setting [3], “inactive; negative”.
With `COC1=C(OC)C(=O)C(C)=CC1=O`, the mutagenic call under setting [9] is “inactive; negative”; the mutagenic call (Test System: AMES SALMONELLA TYPHIMURIUM, Strain/Indicator: TA98, Metabolic Activation: RAT, LIVER, S-9, PHENOBARBITAL AND 5,6-BENZOFLAVONE, Method: PREINCUBATION) is “inactive; negative”; the mutagenic call under setting [10] is “inactive; negative”; the mutagenic call (Test System: AMES SALMONELLA TYPHIMURIUM, Strain/Indicator: TA100, Metabolic Activation: RAT, LIVER, S-9, PHENOBARBITAL AND 5,6-BENZOFLAVONE, Method: PREINCUBATION) was “inactive; negative”; the mutagenic call under setting [11] was “inactive; negative”; the mutagenic call (Test System: AMES SALMONELLA TYPHIMURIUM, Strain/Indicator: TA102, Metabolic Activation: RAT, LIVER, S-9, PHENOBARBITAL AND 5,6-BENZOFLAVONE, Method: PREINCUBATION) was “inactive; negative”. For the same compound, the mutagenic call under setting [12] is “inactive; negative”; the mutagenic call (Test System: AMES SALMONELLA TYPHIMURIUM, Strain/Indicator: TA104, Metabolic Activation: RAT, LIVER, S-9, PHENOBARBITAL AND 5,6-BENZOFLAVONE, Method: PREINCUBATION) was “inactive; negative”; the mutagenic call (Test System: AMES SALMONELLA TYPHIMURIUM, Strain/Indicator: TA2637, Metabolic Activation: NONE, Method: PREINCUBATION) was “inactive; negative”; the mutagenic call (Test System: AMES SALMONELLA TYPHIMURIUM, Strain/Indicator: TA2637, Metabolic Activation: RAT, LIVER, S-9, PHENOBARBITAL AND 5,6-BENZOFLAVONE, Method: PREINCUBATION) is “inactive; negative”.
As to `CCC(=O)OCc1ccc([N+](=O)[O-])cc1`, the mutagenic call is “inactive; negative” under setting [9]; “inactive; negative” (Test System: AMES SALMONELLA TYPHIMURIUM, Strain/Indicator: TA100(NR), Metabolic Activation: NONE, Method: PREINCUBATION); “active; positive” under setting [10]; “active; positive” under setting [2].
`NCC(=O)CCC(=O)O`: the mutagenic call was “inactive; negative” under setting [9]; “inactive; negative” under setting [10]; “active; positive” under setting [11]; “active; positive” under setting [12]; “inactive; negative” (Test System: AMES SALMONELLA TYPHIMURIUM, Strain/Indicator: TA1535, Metabolic Activation: NONE, Method: PREINCUBATION).
For the compound `O=c1c2ccc(OCC3CO3)cc2sn1CC1CO1` (stereo not given), the mutagenic call under setting [3] was “active; positive”.
In the case of `COc1cc(O)cc2c1cc([N+](=O)[O-])c1c(C(=O)O)cc3c(c12)OCO3`, the mutagenic call (Test System: AMES SALMONELLA TYPHIMURIUM, Strain/Indicator: TM677/8-AZAGUANINE, Metabolic Activation: NONE, Method: SUSPENSION/PLATE) is “inactive; negative”.
